Measured values from ChEMBL document CHEMBL4808169, “Discovery of Potent and Fast-Acting Antimalarial Bis-1,2,4-triazines” (J Med Chem, 2021).
pIC50: −log10 of the molar value. Converted amounts (≈) assume the structure as drawn. Values belong to the compound of their own block, whether it stands above or below them. The source made the active and inactive calls. No cut-off for these calls is given here.

Assays:
Plasmodium falciparum [1] = assay: Antimalarial activity against Plasmodium falciparum 3D7 infected in human red blood cells at 40 uM after 72 hrs by DAPI-staining based assay relative to control; type: functional
Plasmodium falciparum [2] = assay: microbe, parasite or virus in culture; conditions: 3D7, 72 h
Description: Antimalarial activity against Plasmodium falciparum 3D7 infected in human red blood cells after 72 hrs by DAPI-staining based assay

[3] = Kinetic solubility of compound at pH 2 by nephelometry; type: physicochemical; conditions: buffer, read-out: Kinetic_solubility
[4] = Intrinsic clearance in mouse liver microsomes in presence of NADPH by UPLC-MS analysis; type: ADME, Microsome
[5] = Kinetic solubility of compound at pH 6.5 by nephelometry; type: physicochemical; conditions: buffer, read-out: Kinetic_solubility
[6] = Half life in human liver microsomes in presence of NADPH by UPLC-MS analysis; type: ADME, Microsome
[7] = Intrinsic clearance in human liver microsomes assessed per mg of protein in presence of NADPH by UPLC-MS analysis; type: ADME, Microsome; conditions: read-out: CLH
[8] = Half life in mouse liver microsomes in presence of NADPH by UPLC-MS analysis; type: ADME, Microsome
Plasmodium falciparum [9] = assay: Bactericidal activity against Plasmodium falciparum 3D7A at 10 times IC50; type: functional, organism-based
Plasmodium berghei = assay: Antiplasmodial activity against Plasmodium berghei ANKA infected in po dosed Swiss mouse administered at 2 hrs post infection and measured on day 4 by Peter's 4-day test; type: functional

- pIC50 (Plasmodium falciparum [2]): 6.00
SMILES: CC#CCOc1nncc(-c2cnnc(OCC#CC)n2)n1

- pIC50 (Plasmodium falciparum [2]): 7.49
SMILES: CSc1nncc(-c2cnnc(OC(C)CN(C)C)n2)n1 (configuration not stated)

- pIC50 (Plasmodium falciparum [2]): 6.96
SMILES: CCCOc1nncc(-c2cnnc(OCCC)n2)n1

- pIC50 (Plasmodium falciparum [2]): 4.92
SMILES: CC(CN(C)C)Oc1nncc(-c2cnnc(OC(C)CN(C)C)n2)n1 (configuration not stated)

- solubility kinetic [3]: 50 µg/mL (≈ 172 µM)
- pIC50 (Plasmodium falciparum [2]): 6.92
- microsomal CLint [4]: 118 µL/min/mg
- solubility kinetic [5]: 25 µg/mL (≈ 85.8 µM)
- half-life [6]: 199 min
- microsomal CLint [7]: 9 µL/min/mg
- half-life [8]: 15 min
SMILES: CCc1nncc(-c2cnnc(SCCN(C)C)n2)n1

- pIC50 (Plasmodium falciparum [2]): 6.30
SMILES: Cc1ncsc1CCOc1nncc(-c2cnnc(OCCc3scnc3C)n2)n1

- pIC50 (Plasmodium falciparum [2]): 6.68
SMILES: CC(C)Sc1nncc(-c2cnnc(SCCN(C)C)n2)n1

- solubility kinetic [3]: 50 µg/mL (≈ 157 µM)
- pIC50 (Plasmodium falciparum [2]): 8.05
- microsomal CLint [4]: 330 µL/min/mg
- solubility kinetic [5]: 25 µg/mL (≈ 78.3 µM)
- half-life [6]: 31 min
- microsomal CLint [7]: 56 µL/min/mg
- half-life [8]: 5 min
SMILES: CCCCc1nncc(-c2cnnc(SCCN(C)C)n2)n1

- solubility kinetic [3]: 25 µg/mL (≈ 82.4 µM)
- pIC50 (Plasmodium falciparum [2]): 7.52
- microsomal CLint [4]: 109 µL/min/mg
- solubility kinetic [5]: 25 µg/mL (≈ 82.4 µM)
- half-life [6]: 69 min
- microsomal CLint [7]: 25 µL/min/mg
- half-life [8]: 16 min
SMILES: CCCCc1nncc(-c2cnnc(OCCN(C)C)n2)n1

- pIC50 (Plasmodium falciparum [2]): 6.47
SMILES: CCCCc1nncc(-c2cnnc(CCCC)n2)n1

- pIC50 (Plasmodium falciparum [2]): 7.03
SMILES: FC(F)(F)CCOc1nncc(-c2cnnc(OCCC(F)(F)F)n2)n1

- pIC50 (Plasmodium falciparum [2]): 7.09
SMILES: CC(C)Oc1nncc(-c2cnnc(SCCN(C)C)n2)n1

- pIC50 (Plasmodium falciparum [2]): 5.07
SMILES: CN(C)CCOc1nncc(-c2cnnc(OCCN(C)C)n2)n1

- pIC50 (Plasmodium falciparum [2]): 6.05
SMILES: c1nnc(OC2CC2)nc1-c1cnnc(OC2CC2)n1

- solubility kinetic [3]: 50 µg/mL (≈ 139 µM)
- pIC50 (Plasmodium falciparum [2]): 7.27
- microsomal CLint [4]: 33 µL/min/mg
- solubility kinetic [5]: 50 µg/mL (≈ 139 µM)
- half-life [6]: 232 min
- microsomal CLint [7]: 7 µL/min/mg
- half-life [8]: 53 min
SMILES: CN(C)CCOc1nncc(-c2cnnc(OCCC(F)(F)F)n2)n1

Second part, the compound before the results:

SMILES: COCCOc1nncc(-c2cnnc(OCCOC)n2)n1
- Activity (Plasmodium falciparum [1]): 100%

SMILES: C#CCSc1nncc(-c2cnnc(SC)n2)n1
- pIC50 (Plasmodium falciparum [2]): 7.49

SMILES: COCCSc1nncc(-c2cnnc(SCCN(C)C)n2)n1
- pIC50 (Plasmodium falciparum [2]): 6.59

SMILES: CSc1nncc(-c2cnnc(SCCCN=[N+]=[N-])n2)n1
- pIC50 (Plasmodium falciparum [2]): 8.36

SMILES: FC(F)(F)COc1nncc(-c2cnnc(OCC(F)(F)F)n2)n1
- pIC50 (Plasmodium falciparum [2]): 6.38

SMILES: CC(C)Oc1nncc(-c2cnnc(OC(C)C)n2)n1
- pIC50 (Plasmodium falciparum [2]): 5.70

SMILES: CCCOc1nncc(-c2cnnc(SCCN(C)C)n2)n1
- pIC50 (Plasmodium falciparum [2]): 7.96

SMILES: COc1nncc(-c2cnnc(SCCN(C)C)n2)n1
- pIC50 (Plasmodium falciparum [2]): 6.07

SMILES: C[C@H]1[C@H](OC(=O)CCC(=O)O)O[C@@H]2O[C@@]3(C)CC[C@H]4[C@H](C)CC[C@@H]1[C@@]24OO3 [ARTESUNATE]
- Activity (Plasmodium falciparum [9]): Active
- ED50 (Plasmodium berghei): 1.37 mg/kg/day

SMILES: CC(C)Sc1nncc(-c2cnnc(OCCN(C)C)n2)n1
- pIC50 (Plasmodium falciparum [2]): 7.92

SMILES: [N-]=[N+]=NCCCSc1nncc(-c2cnnc(SCCCN=[N+]=[N-])n2)n1
- pIC50 (Plasmodium falciparum [2]): 7.51

SMILES: C#CCOc1nncc(-c2cnnc(SC)n2)n1
- pIC50 (Plasmodium falciparum [2]): 6.89

SMILES: CC(C)Oc1nncc(-c2cnnc(OCCN(C)C)n2)n1
- pIC50 (Plasmodium falciparum [2]): 6.36

SMILES: C[Si](C)(C)CCOc1nncc(-c2cnnc(OCC[Si](C)(C)C)n2)n1
- pIC50 (Plasmodium falciparum [2]): 6.14

SMILES: CSc1nncc(-c2cnnc(SCCN(C)C)n2)n1
- solubility kinetic [3]: 6.3 µg/mL (≈ 20.4 µM)
- solubility kinetic [5]: 6.3 µg/mL (≈ 20.4 µM)

SMILES: CCN(CC)CCCC(C)Nc1ccnc2cc(Cl)ccc12 (configuration not stated) [CHLOROQUINE]
- Activity (Plasmodium falciparum [9]): Active
